System: DNA human telomeric G4 sequence 5′-d(GGGTTAGGGTTAGGGTTAGGG)-3′
Assay: Quantitative G4 binding (fluorescence anisotropy and direct fluorescence titrations)
Method: Quantitative binding estimates as KD values were obtained from fluorescence anisotropy titrations (MM41) and direct fluorescence titrations (CM03). The DNA human telomeric G4 sequence 5′-d([…])-3′ was used to enable direct comparisons to be made with the modeling studies. Both compounds bind with nanomolar affinity to this DNA G4, with a ∼3-fold difference between MM41 (20 ± 2 nM) and CM03 (67 ± 4 nM).
Human telomeric DNA G4 was prepared using oligonucleotides purchased from Integrated DNA Technologies (Coralville, IA, USA). The DNA purity and sequence was verified by mass spectrometry. Desalted oligonucleotide sequences were initially suspended in 150 mM NH4OAc (pH 6.8) in nuclease-free water to yield a final concentration of 1 mM and determined spectroscopically at 260 nm using the nearest-neighbor method. […]
Fluorescence anisotropy measurements were obtained on a Variant Cary Eclipse fluorescence spectrophotometer (Agilent Technologies, Santa Clara, CA, USA) equipped with a polarization attachment. […]
To determine dissociation constants, MM41 was added to a 3 mL volume of the experimental buffer (50 mM KCl, 10 mM Tris-HCl, 1 mM EDTA in nuclease-free water at 25 °C, pH 7.3) in a quartz fluorescence cuvette at a fixed concentration of 50 nM, and G4 was titrated into the cuvette. […] Each set of measurements were taken from a 50 s average reading measurement (PMT = 630 V). […]

O=C1c2ccc3c4c(c(NCCN5CCCC5)cc(c24)C(=O)N1CCCN1CCOCC1)C(=O)N(CCCN1CCOCC1)C3=O [CM03, 2,7-bis(3-morpholinopropyl)-4-((2-(pyrrolidin-1-yl)ethyl)amino)benzo[lmn][3,8]phenanthroline-1,3,6,8(2H,7H)-tetraone]
difference in KD between MM41 and CM03: ~3 fold
